In patent publication US8470800B2, “Method of reducing intraocular pressure in humans” (Inotek Pharmaceuticals Corporation, priority 2009, dated 2013):

Legend:
A2A adenosine receptor = A2A adenosine receptor (Homo sapiens (Human), UniProt P29274); test: Adenosine receptor binding selectivity A1 > A2A; settings: ratio of Ki values
Description: (§1) As used herein, the term “selective adenosine A1 agonist” means an A1 agonist that has a high affinity to the A1 receptor while simultaneously having a low affinity for the A2 and A3 adenosine receptors.
(§2) Membranes for radioligand binding experiments are prepared from fresh or frozen cells as described in Klotz et al., Naunyn-Schmiedeberg's Arch. […] The cell suspension is then homogenized in ice-cold hypotonic buffer (5 mM Tris/HCl, 2 mM EDTA, pH 7.4) and the homogenate is spun for 10 minutes (4° C.) at 1,000 g.
(§3) Nonspecific binding is determined in the presence of 100 μM R-PM and 1 mM theophylline, respectively. For details see Klotz et al., Naunyn-Schmiedeberg's Arch.

A3 adenosine receptor [1] = target: T1, A3 adenosine receptor (Homo sapiens (Human), UniProt P0DMS8); test: Adenosine receptor binding selectivity A1 > A3; settings: ratio of Ki values
Description: as §1, §2, §3

[2] = target: human A1 adenosine receptor (Homo sapiens (Human), UniProt P30542); test: Inhibition of forskolin-stimulated adenylyl cyclase activity via A1 receptor; format: biochemical; settings: membranes of CHO cells stably transfected with human A1 receptor
Description: (§4) The A1 and A3 receptor-mediated inhibition of forskolin-stimulated adenylyl cyclase activity was tested in membranes prepared from CHO cells stably transfected with the human A1 and A3 adenosine receptors. The A2a and A2b receptor-mediated stimulation of basal cyclase activity was tested in membranes prepared from CHO cells stably transfected with the human A2a and […] adenosine receptors
(§5) Adenylyl Cyclase Inhibition Via Human Adenosine A1 and A3 Receptors

A3 adenosine receptor [3] = target: T1, A3 adenosine receptor; test: Inhibition of forskolin-stimulated adenylyl cyclase activity via A3 receptor; format: biochemical; settings: membranes of CHO cells stably transfected with human A3 receptor
Description: as §4, §5

[4] = Clinical study: single topical ocular dose, intraocular pressure in adults with OHT or POAG; format: in vivo, human; settings: for IOP difference from the placebo response: 2 hours postdose
Text: The clinical study described herein is a multi-center, randomized, double-blind, placebo-controlled, dose-escalation study of a single topical ocular application of the study drug (i.e., Compound A or placebo) to the one study eye of adults with OHT or POAG. The “study eye” was defined as the eye with the higher mean IOP, recorded between 7:00 and 8:00 AM on the day prior to dosing (Day 0).
The adult subjects were sequentially assigned to 1 of 7 treatment groups.
Masked-intraocular pressures were determined in duplicate with a Goldmann tonometer following traditional corneal anesthesia. […] Subsequent bilateral external eye examinations and masked-IOP determinations were performed at 9:00 AM, 10:00 AM, 12:00 noon, and 2:00 PM (each ±5 minutes), corresponding to 1, 2, 4, and 6 hours post study drug application. In addition in the 700 mcg cohort an IOP determination was performed at 6:00 PM (18:00), corresponding to 10 hours post study drug application.
The study drug was only administered to one eye per subject (the study eye). Dosages ranged from 2.5 micrograms to 350 micrograms per 50 microliter drop, per respective treatment group. A board-certified ophthalmologist (or comparably trained designee) administered the study drug. Randomized enrollment of subjects into each successive treatment groups was predicated upon the review and approval of the safety data from the completed treatment groups by the Safety Research Committee, consisting of three qualified physicians (i.e., an internist, cardiologist, and ophthalmologist).

T1 sequence (P0DMS8 whole entry): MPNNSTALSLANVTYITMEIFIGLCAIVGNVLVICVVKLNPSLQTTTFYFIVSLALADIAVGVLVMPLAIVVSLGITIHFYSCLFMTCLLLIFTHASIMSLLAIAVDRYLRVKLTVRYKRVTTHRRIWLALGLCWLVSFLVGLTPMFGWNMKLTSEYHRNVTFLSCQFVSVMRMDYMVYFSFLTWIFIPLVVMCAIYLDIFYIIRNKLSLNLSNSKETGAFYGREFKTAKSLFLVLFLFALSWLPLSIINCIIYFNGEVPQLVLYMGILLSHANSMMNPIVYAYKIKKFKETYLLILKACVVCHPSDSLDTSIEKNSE
Chain of A2A adenosine receptor (P29274 whole entry): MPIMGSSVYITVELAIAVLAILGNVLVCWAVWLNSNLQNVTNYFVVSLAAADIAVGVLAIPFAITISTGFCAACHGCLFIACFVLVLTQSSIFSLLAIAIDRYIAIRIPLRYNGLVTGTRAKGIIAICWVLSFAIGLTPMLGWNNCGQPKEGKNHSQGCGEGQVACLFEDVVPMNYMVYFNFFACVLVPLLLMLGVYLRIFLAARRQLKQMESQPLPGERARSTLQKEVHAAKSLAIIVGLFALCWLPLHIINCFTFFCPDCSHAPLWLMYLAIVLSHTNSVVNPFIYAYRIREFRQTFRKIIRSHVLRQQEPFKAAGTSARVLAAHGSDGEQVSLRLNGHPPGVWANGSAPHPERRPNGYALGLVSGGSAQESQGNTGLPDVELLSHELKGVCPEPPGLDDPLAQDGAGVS
Chain of human A1 adenosine receptor (P30542 whole entry): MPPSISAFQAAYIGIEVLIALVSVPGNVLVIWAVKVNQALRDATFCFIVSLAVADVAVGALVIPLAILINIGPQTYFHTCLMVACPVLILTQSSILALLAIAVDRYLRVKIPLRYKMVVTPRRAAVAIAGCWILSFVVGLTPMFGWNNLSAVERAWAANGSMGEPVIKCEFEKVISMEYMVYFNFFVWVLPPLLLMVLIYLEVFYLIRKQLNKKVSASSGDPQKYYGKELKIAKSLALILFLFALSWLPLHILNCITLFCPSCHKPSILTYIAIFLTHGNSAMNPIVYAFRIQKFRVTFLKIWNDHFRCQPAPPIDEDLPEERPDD

Row | SMILES | A1 > A2A SELECTIVITY [KiA2(nm)/KiA1(nm)] (A2A adenosine receptor) | A1 > A3 SELECTIVITY [KiA3(nm)/KiA1(nm)] (A3 adenosine receptor [1]) | EC50 [2] [nM] | EC50 (A3 adenosine receptor [3]) [nM] | also measured
1 | O=[N+]([O-])OC[C@H]1O[C@@H](n2cnc3c(NC4CC5CCC4C5)ncnc32)[C@H](O)[C@@H]1O (stereo partly drawn) [Compound F, ((2R,3S,4R,5R)-5-(6-(bicycle-[2.2.1]-heptan-2-ylamino)-9H-purin-9-yl)-3,4-dihydroxytetrahydrofuran-2-yl)methyl nitrate] | 3945 | 260 | – | – | –
2 | O=[N+]([O-])OC[C@H]1O[C@@H](n2cnc3c(NC4CCOC4)ncnc32)[C@H](O)[C@@H]1O (stereo partly drawn) [Compound D, ((2R,3S,4R,5R)-3,4-dihydroxy-5-(6-(tetrahydrofuran-3-ylamino)-9H-purin-9-yl)tetrahydrofuran-2-yl)methyl nitrate] | >9434 | 202 | – | – | –
3 | O=S(=O)([O-])OC[C@H]1O[C@@H](n2cnc3c(NC4CCCC4)ncnc32)[C@H](O)[C@@H]1O.[Na+] [Compound C, sodium ((2R,3S,4R,5R)-5-(6-(cyclopentylamino)-9H-purin-9-yl)-3,4-dihydroxytetrahydrofuran-2-yl)methyl sulfate] | 2250 | 251 | – | – | –
4 | O=[N+]([O-])OC[C@H]1O[C@@H](n2cnc3c(NC4CCCCC4)ncnc32)[C@H](O)[C@@H]1O [Compound E, ((2R,3S,4R,5R)-5-(6-(cyclohexylamino)-9H-purin-9-yl)-3,4-dihydroxytetrahydrofuran-2-yl)methyl nitrate] | 878 | 1098 | 29 | > 100000 | –
5 | O=S(=O)([O-])OC[C@H]1O[C@@H](n2cnc3c(NC4CCCCC4)nc(Cl)nc32)[C@H](O)[C@@H]1O.[Na+] [Compound G, sodium ((2R,3S,4R,5R)-5-(2-chloro-6-(cyclohexylamino)-9H-purin-9-yl)-3,4-dihydroxytetrahydrofuran-2-yl)methyl sulfate] | 200 | 130 | 19 | > 100000 | –
6 | O=[N+]([O-])OC[C@H]1O[C@@H](n2cnc3c(NC4CCCC4)ncnc32)[C@H](O)[C@@H]1O [Compound A, ((2R,3S,4R,5R)-5-(6-(cyclopentylamino)-9H-purin-9-yl)-3,4-dihydroxytetrahydrofuran-2-yl)methyl nitrate] | – | – | 17 | – | IOP difference from the placebo response ([4]; 350 mcg treatment group): Statistically significant differences from the placebo response; duration of the decrease in IOP ([4]; 350 mcg treatment group, entire observation period): ~6 h; IOP difference from the placebo response ([4]; 700 mcg treatment group): Statistically significant differences from the placebo response; dose group with % of subjects achieving greatest IOP decrement (responder analysis) ([4]; across 7 dose groups): 350 µg; dose with largest mean and median decreases in IOP ([4]; across 7 dose groups 2.5-700 mcg): 350 µg; decrement in IOP from the Day 1 pre-dose baseline ([4]; single topical ocular dose 2.5-700 mcg, study eye, OHT or POAG): Dose-related decrement in IOP; responder analysis: subjects with categorical mean IOP decreases from baseline of ≧10%, ≧15% or ≧20% ([4]; throughout the observation period (~6 hrs)): showed a dose-response; time post-dose of largest difference in IOP between drug-treated and placebo-treated eyes ([4]; topical ocular doses, human subjects): approximately 2 hours
